# Measured values taken from US20180221352A1, “3-(1H-PYRROLO[2,3-C]PYRIDIN-2-YL)-1H-PYRAZOLO[3,4-B]PYRIDINES AND THERAPEUTIC USES THEREOF” (Samumed, LLC, priority 2015, published 2018).
# How the values were obtained:
# Format in all cases: cell-based
# [1] = tested on: Wnt activity (Sp5-Luc reporter, SW480 colon carcinoma cells); experiment: Wnt activity screening assay, Sp5-Luc reporter gene in SW480 cells; details: Homo sapiens; for EC50: Sp5-Luc reporter, SW480 cells, overnight incubation; for inhibition at 10 µM: SW480, read-out: percent inhibition at 10 μM
# From the text: The screening assay for Wnt activity is described as follows. Reporter cell lines can be generated by stably transducing cancer cell lines (e.g., colon cancer) or primary cells (e.g., IEC-6 intestinal cells) with a lentiviral construct that includes a Wnt-responsive promoter driving expression of the firefly luciferase gene.
# SW480 colon carcinoma cells were transduced with a lentiviral vector expressing luciferase with a human Sp5 promoter consisting of a sequence of eight TCF/LEF binding sites. SW480 cells stably expressing the Sp5-Luc reporter gene and a hygromycin resistance gene were selected by treatment with 150 μg/mL of hygromycin for 7 days. These stably transduced SW480 cells were expanded in cell culture and used for all further screening activities. […] For Sp5-Luc reporter gene assays, the cells were plated at 4,000 cells/well in 384-well plates with medium containing 1% fetal bovine serum and incubated overnight at 37° C. and 5% CO2. Following incubation, 20 μl of BrightGlo luminescence reagent (Promega) was added to each well of the 384-well assay plates. The plates were placed on an orbital shaker for 2 min and then luminescence was quantified using the Envision (Perkin Elmer) plate reader. Readings were normalized to DMSO only treated cells, and normalized activities were utilized for EC50 calculations using the dose-response log (inhibitor) vs. response−variable slope (four parameters) nonlinear regression feature available in GraphPad Prism 5.0 (or Dotmatics).
# IL-6 = IL-6 inhibition in LPS-stimulated THP-1 cells (HTRF); details: Homo sapiens; for EC50: THP-1 cells, LPS 500 ng/mL, 22 hours, IL6 HTRF; for inhibition at 10 µM: THP-1, read-out: percent inhibition at 10 μM
# Protocol: THP-1 cells were cultured in basal media with 1% FBS for 24 hours before the start of the assay. […] THP-1 cells were plated at 5000 cells/well in the 384-well plates and incubated at 37° C. for 2 h. 500 ng/mL of LPS was added after 2 hours and cells were incubated for another 22 hours at 37° C. Plates were spun in a centrifuge for 1 minute at […] and a mixture of anti-IL6 XL665, and anti-IL6 Cryptate diluted in reconstitution buffer (Cisbio Inc.) was added to each well. Following incubation for 3 hrs at room temperature, Homogeneous Time-Resolved Fluorescence (HTRF) was measured using the Envision (Perkin Elmer) at 665 nm and […]. The ratio of fluorescence at 665 nm to 620 nm was used as a readout for IL6 quantification. All samples were processed in duplicate. Readings were normalized to DMSO treated cells and normalized activities were utilized for EC50 calculations using the dose-response log (inhibitor) vs. response−variable slope (four parameters) nonlinear regression feature available in GraphPad Prism 5.0 (or Dotmatics).
# SW480 colon cancer cells = experiment: Cell viability assay (CellTiter-Blue); details: Homo sapiens; for EC50: 96 h, SW480 cell viability, four days; for inhibition at 10 µM: SW480, 96 h, read-out: percent inhibition at 10 μM
# Protocol: Representative compounds were screened using the following assay procedure to assess the effect on cell viability as described below.
# Approximately 2×10^3 SW480 colon cancer cells were seeded into each well and allowed to incubate in the presence or absence of compound for four days at 37° C./5% CO2. Eight replicates of DMSO-treated cells served as controls and cells treated with compound were performed in duplicate.
# After incubation, 20 μL of CellTiter-Blue (Promega) was added to each well allowed to incubate for approximately 3 hours. This reagent was a buffered solution which contains resazurin, metabolically active cells were able to reduce rezarurin (blue) into resorufin (pink) which was highly fluorescent. This measured fluorescence was used as a readout for cell viability.
# [2] = tested on: primary human fibroblasts derived from IPF patients (LL29 cells); experiment: Inhibition of fibrotic process, αSMA staining in TGF-β1 treated fibroblasts; details: Fibroblast; for EC50: 96 h, LL29 cells, TGF-β1 20 ng/mL, 4 days, % αSMA positive cells; for inhibition at 10 µM: read-out: percent inhibition at 10 μM
# Protocol: Representative compounds were screened using primary human fibroblasts (derived from IPF patients) treated with TGF-β1 to determine their ability to inhibit the fibrotic process.
# LL29 cells are plated at 1,500 cells/well in 80 μL/well F12 medium supplemented with 1% Fetal Bovine Serum. […] Wells treated with TGF-31 and containing DMSO were used as controls. […] Following incubation for 4 days, SYTOX green nucleic acid stain (Life Technologies [Thermo Fisher Scientific]) was added to the wells at a final concentration of 1 μM and incubated at room temperature for 30 min.
Compound,EC50 [1] [µM],EC50 (IL-6) [µM],EC50 (SW480 colon cancer cells) [µM],EC50 [2] [µM],inhibition at 10 µM [1] [%],inhibition at 10 µM (IL-6) [%],inhibition at 10 µM [2] [%],inhibition at 10 µM (SW480 colon cancer cells) [%]
"O=C(Nc1cncc(-c2cnc3[nH]nc(-c4cc5c(N6CCCCC6)cncc5[nH]4)c3c2)c1)C1CCCCC1 [Compound 191, N-(5-(3-(4-(Piperidin-1-yl)-1H-pyrrolo[2,3-c]pyridin-2-yl)-1H-pyrazolo[3,4-b]pyridin-5-yl)pyridin-3-yl)cyclohexanecarboxamide]",9.12,6.43,4.09,5.63,,,,
"CCNCc1cncc(-c2cnc3[nH]nc(-c4cc5ccncc5[nH]4)c3c2)c1 [Compound 258, N-((5-(3-(1H-Pyrrolo[2,3-c]pyridin-2-yl)-1H-pyrazolo[3,4-b]pyridin-5-yl)pyridin-3-yl)methyl)ethanamine]",9.34,1.55,3.32,7.43,,,,
"c1ccc(-c2cnc3[nH]nc(-c4cc5ccncc5[nH]4)c3c2)nc1 [Compound 280, 5-(Pyridin-2-yl)-3-(1H-pyrrolo[2,3-c]pyridin-2-yl)-1H-pyrazolo[3,4-b]pyridine]",3.87,3.75,1.15,1.59,,,,
"CC(C)C(=O)Nc1cncc(-c2cnc3[nH]nc(-c4cc5c(-c6ccoc6)cncc5[nH]4)c3c2)c1 [Compound 317, N-(5-(3-(4-(Furan-3-yl)-1H-pyrrolo[2,3-c]pyridin-2-yl)-1H-pyrazolo[3,4-b]pyridin-5-yl)pyridin-3-yl)isobutyramide]",3.62,2.08,9.97,1.69,,,,
"CN(C)Cc1cncc(-c2cnc3[nH]nc(-c4cc5c(-c6ccoc6)cncc5[nH]4)c3c2)c1 [Compound 321, 1-(5-(3-(4-(Furan-3-yl)-1H-pyrrolo[2,3-c]pyridin-2-yl)-1H-pyrazolo[3,4-b]pyridin-5-yl)pyridin-3-yl)-N,N-dimethylmethanamine]",> 10,> 10,6.29,> 10,15.4,29.2,41.1,
"CC(C)(C)CC(=O)Nc1cncc(-c2cnc3[nH]nc(-c4cc5c(-c6ccoc6)cncc5[nH]4)c3c2)c1 [Compound 324, N-(5-(3-(4-(Furan-3-yl)-1H-pyrrolo[2,3-c]pyridin-2-yl)-1H-pyrazolo[3,4-b]pyridin-5-yl)pyridin-3-yl)-3,3-dimethylbutanamide]",3.73,0.437,7,0.874,,,,

# The next lines start with results.
EC50 [1] [µM],EC50 (IL-6) [µM],EC50 (SW480 colon cancer cells) [µM],Compound,EC50 [2] [µM],inhibition at 10 µM [1] [%],inhibition at 10 µM (IL-6) [%],inhibition at 10 µM [2] [%],inhibition at 10 µM (SW480 colon cancer cells) [%]
> 10,2.52,> 10,"c1ncc(-c2cnc3[nH]nc(-c4cc5c(-c6ccoc6)cncc5[nH]4)c3c2)cn1 [Compound 335, 3-(4-(Furan-3-yl)-1H-pyrrolo[2,3-c]pyridin-2-yl)-5-(pyrimidin-5-yl)-1H-pyrazolo[3,4-b]pyridine]",4.77,24.9,,,47
> 10,0.325,> 10,"CS(=O)(=O)NCc1cc(F)cc(-c2cncc3[nH]c(-c4n[nH]c5ncc(-c6cncc(CN7CCCC7)c6)cc45)cc23)c1 [Compound 490, N-(3-Fluoro-5-(2-(5-(5-(pyrrolidin-1-ylmethyl)pyridin-3-yl)-1H-pyrazolo [3,4-b]pyridin-3-yl)-1H-pyrrolo[2,3-c]pyridin-4-yl)benzyl)methanesulfonamide]",> 10,24,,16.2,9.7
> 10,> 10,> 10,"CS(=O)(=O)NCc1cc(F)cc(-c2cncc3[nH]c(-c4n[nH]c5ncc(-c6cncc(NC(=O)C7CCCCC7)c6)cc45)cc23)c1 [Compound 499, N-(5-(3-(4-(3-Fluoro-5-(methylsulfonamidomethyl)phenyl)-1H-pyrrolo[2,3-c]pyridin-2-yl)-1H-pyrazolo[3,4-b]pyridin-5-yl)pyridin-3-yl)cyclohexanecarboxamide]",> 10,12.3,32.4,28.5,9.9
> 10,4.09,> 10,"Fc1cccc(-c2cncc3[nH]c(-c4n[nH]c5ncc(C6CCNCC6)cc45)cc23)c1 [Compound 505, 3-(4-(3-Fluorophenyl)-1H-pyrrolo[2,3-c]pyridin-2-yl)-5-(piperidin-4-yl)-1H-pyrazolo[3,4-b]pyridine]",> 10,17.5,,0,7
7.28,> 10,2.6,"Fc1ccc(-c2cncc3[nH]c(-c4n[nH]c5ncc(-c6cncc(OC7CCCCC7)c6)cc45)cc23)cc1 [Compound 527, 5-(5-(Cyclohexyloxy)pyridin-3-yl)-3-(4-(4-fluorophenyl)-1H-pyrrolo[2,3-c]pyridin-2-yl)-1H-pyrazolo[3,4-b]pyridine]",4.35,,21.7,,
> 10,> 10,> 10,"O=C(CC1CCNCC1)Nc1cncc(-c2cnc3[nH]nc(-c4cc5c(-c6cccnc6)cncc5[nH]4)c3c2)c1 [Compound 561, 2-(Piperidin-4-yl)-N-(5-(3-(4-(pyridin-3-yl)-1H-pyrrolo[2,3-c]pyridin-2-yl)-1H-pyrazolo[3,4-b]pyridin-5-yl)pyridin-3-yl)acetamide]",2.2,0,14.5,,4.4
1.16,0.199,> 10,"Cn1cc(-c2cnc3[nH]nc(-c4cc5c(-c6cc(F)cc(CNS(C)(=O)=O)c6)cncc5[nH]4)c3c2)cn1 [Compound 764, N-(3-Fluoro-5-(2-(5-(1-methyl-1H-pyrazol-4-yl)-1H-pyrazolo[3,4-b]pyridin-3-yl)-1H-pyrrolo[2,3-c]pyridin-4-yl)benzyl)methanesulfonamide]",1.04,,,,0
